According to paper PMC13198257, “An aerosolized dual-action autotaxin inhibitor-PPARγ agonist for the treatment of pulmonary fibrosis” (Cell Reports Medicine, 2026):

Tested on: lung gene expression
Assay: RNA sequencing of lung tissue (BLM/EL244 vs BLM)
Type: in vivo, mouse
Settings: lung tissue, BLM/EL244 vs BLM
Procedure: RNA quality was assessed using an Agilent TapeStation 4150 with the High Sensitivity […] ScreenTape (Agilent), according to the manufacturer’s protocols. For library preparation, the QuantSeq 3’mRNA-Seq Library Prep Kit (Lexogen) was used according to manufacturer’s instructions. Briefly, 500 ng of RNA from each sample was used for first-strand synthesis, followed by RNA template removal, and second-strand synthesis initiated by random primers. In-line barcodes were introduced at this step, and this was followed by magnetic bead-based purification. The resulting libraries were amplified for 15 cycles and re-purified, with quantity and quality assessed on a Qubit 4 Fluorometer with the Invitrogen Qubit dsDNA HS Assay and an Agilent Tapestation 4150 with the High Sensitivity D1000 assay kit, respectively. The quantified libraries were pooled equimolarly; 50ng of total library mix was used for Adapter Conversion PCR Amplification using the Universal Library Conversion Kit (App-A), Version: V1.0 (MGI Tech Co., Ltd.), according to the manufacturer’s instructions.
The quantity and quality of the purified adapter conversion PCR (AC-PCR) product were evaluated on a Qubit 4 Fluorometer with the Invitrogen Qubit dsDNA HS Assay and on an Agilent Tapestation 4150 with the High Sensitivity D1000 assay kit, respectively. This was followed by DNA denaturation, Single-Strand Circularisation, Enzymatic Digestion, Enzymatic Digestion Product Cleanup and Quality Control steps on 1 pmol of AC-PCR product, according to the Universal Library Conversion Kit (App-A) User Manual (Version: A3).
Finally, 60 fmol of ssCirDNA were used for DNB preparation and sequencing on a DNBSEQ-G400 platform at the BSRC Alexander Fleming Genomics Facility, using a G400 App-A FCS SE100 High-throughput Sequencing Set (MGI Tech Co., Ltd.), according to the manufacturer’s instructions.
Alignment of the FASTQ files was performed against the mouse genome build mm10 using a custom Bash script.[143] Read counting on the 3′ UTRs and differential expression analysis were conducted using the metaseqR2 bioconductor package.[144] Genes corresponding to the following biotypes were excluded: polymorphic_pseudogene, processed_transcript, pseudogene, IG_V_pseudogene, misc_RNA, IG_C_gene, IG_J_gene, IG_D_gene, IG_LV_gene, TR_V_gene, TR_V_pseudogene, TEC, and processed_pseudogene. Gene counts were normalized with DESEQ[145] through metaseqR2. Genes with more than 10 counts in at least 50% of the samples were kept for further processing. For differential expression analysis, the PANDORA algorithm[146] was used to estimate a meta p-value integrating the results from the DESEQ, DESEQ2,[147] edgeR,[148] limma,[149] NBPSeq,[150] and NOISeq[151] algorithms. All additional parameters were set to default values.
Pathway enrichment analysis was performed for the Gene Ontology Biological process (BP) and Molecular Function (MF) terms through GeneCodis 4.[152] The volcano plots, scatterplots, Venn diagrams, and dot plots were generated using the ggplot2 Bioconductor package.

## O=C1NC(=O)C(Cc2ccc(OCCC3CCN(C(=O)OCc4cc(Cl)cc(Cl)c4)CC3)cc2)S1 (centres unmarked) [EL244, 3,5-dichlorobenzyl 4-(2-(4-((2,4-dioxothiazolidin-5-yl)methyl)phenoxy)ethyl)piperidine-1-carboxylate]
  log2 nFC Hells: -1.30
  log2 nFC Il18bp: -0.95
  log2 nFC Ildr2: -1.32
  log2 nFC Itm2a: -1.25
  log2 nFC Kcnn4: -1.27
  log2 nFC Kdelr3: -1.25
  log2 nFC Kif23: -1.20
  log2 nFC Klhdc8a: -1.02
  log2 nFC Kntc1: -1.39
  log2 nFC Lair1: -0.92
  log2 nFC Lat2: -1.10
  log2 nFC Lcn2: -0.95
  log2 nFC Lgals1: -1.12
  log2 nFC Lgmn: -1.09
  log2 nFC Lilrb4a: -0.89
  log2 nFC Lmnb1: -0.91
  log2 nFC Loxl2: -0.91
  log2 nFC Lrg1: -0.89
  log2 nFC Lum: -1.32
  log2 nFC Mad2l1: -0.97
  log2 nFC Mafb: -0.92
  log2 nFC Mark1: -1.23
  log2 nFC Mcm5: -1.33
  log2 nFC Mdk: -1.34
  log2 nFC Mfap5: -1.12
  log2 nFC Mfrp: -0.87
  log2 nFC Mgp: -1.03
  log2 nFC Mir692-1: -1.18
  log2 nFC Mmp14: -1.31
  log2 nFC Ms4a6c: -0.91
  log2 nFC Ms4a6d: -0.93
  log2 nFC Ncapd2: -1.29
  log2 nFC Ndnf: -0.87
  log2 nFC Nnat: -1.34
  log2 nFC Nrcam: -1.26
  log2 nFC Nrep: -1.26
  log2 nFC P2ry6: -0.93
  log2 nFC Paox: -0.92
  log2 nFC Pcdh7: -1.03
  log2 nFC Pdlim4: -1.24
  log2 nFC Plk4: -1.31
  log2 nFC Polh: -0.87
  log2 nFC Ppic: -1.10
  log2 nFC Prdx4: -0.94
  log2 nFC Psat1: -0.98
  log2 nFC Psrc1: -1.26
  log2 nFC Pth1r: -1.40
  log2 nFC Racgap1: -1.21
  log2 nFC Rcc1: -0.92
  log2 nFC Rgs4: -1.23
  log2 nFC Rgs5: -1.00
  log2 nFC Rhof: -1.02
  log2 nFC S100a4: -1.26
  log2 nFC S100a14: -1.28
  log2 nFC Scn3b: -0.91
  log2 nFC Serpina3g: -1.31
  log2 nFC Serpina3n: -1.22
  log2 nFC Serpine1: -0.98
  log2 nFC Serpine2: -0.87
  log2 nFC Serpinh1: -0.87
  log2 nFC Sertad4: -1.35
  log2 nFC Sfn: -1.19
  log2 nFC Sh2b2: -1.23
  log2 nFC Slamf8: -1.24
  log2 nFC Smc2: -0.98
  log2 nFC Snai1: -0.97
  log2 nFC Spc24: -1.13
  log2 nFC St8sia6: -1.04
  log2 nFC Tacc3: -1.27
  log2 nFC Tiam1: -1.04
  log2 nFC Tlr2: -1.04
  log2 nFC Tnfaip8l1: -1.08
  log2 nFC Tnfrsf11a: -1.12
  log2 nFC Tns4: -1.20
  log2 nFC Traf4: -1.10
  log2 nFC Tubb2b: -1.19
  log2 nFC Tyms: -1.02
  log2 nFC Ulbp1: -1.06
  log2 nFC Vcan: -1.21
  log2 nFC Wfdc17: -1.30
  nFC 1500009L16Rik: 0.43
  nFC 2200002D01Rik: 0.54
  nFC AA467197: 0.38
  nFC Adamts2: 0.50
  nFC Areg: 0.49
  nFC Arhgap11a: 0.46
  nFC Armcx4: 0.40
  nFC Asf1b: 0.45
  nFC Bcl2a1b: 0.45
  nFC Bcl2a1d: 0.41
  nFC Bub1b: 0.44
  nFC C1qtnf5: 0.55
  nFC C1qtnf6: 0.38
  nFC Ccdc8: 0.46
  nFC Ccl9: 0.39
  nFC Ccl17: 0.52
  nFC Cd68: 0.50
  nFC Cd72: 0.50
  nFC Cd248: 0.42
  nFC Cd300c2: 0.54
  nFC Cdca2: 0.40
  nFC Cenpa: 0.40
  nFC Cenpw: 0.40
  nFC Cercam: 0.39
  nFC Ch25h: 0.53
  nFC Cilp: 0.38
  nFC Clcn5: 0.53
  nFC Clec4a2: 0.42
  nFC Clec4n: 0.38
  nFC Clec5a: 0.45
  nFC Clec11a: 0.50
  nFC Clec12a: 0.53
  nFC Col1a2: 0.38
  nFC Col8a1: 0.44
  nFC Col12a1: 0.54
  nFC Col15a1: 0.47
  nFC Col16a1: 0.53
  nFC Cotl1: 0.54
  nFC Csf2rb2: 0.50
  nFC Cstb: 0.52
  nFC Ctsk: 0.51
  nFC Ctss: 0.53
  nFC Cx3cr1: 0.44
  nFC Cyp7b1: 0.38
  nFC Dbn1: 0.54
  nFC Dclk1: 0.55
  nFC Diaph3: 0.46
  nFC Dio2: 0.38
  nFC Dok2: 0.39
  nFC Dut: 0.54
  nFC Egr2: 0.54
  nFC Epha4: 0.54
  nFC F10: 0.46
  nFC Fam20c: 0.48
  nFC Fbn1: 0.49
  nFC Fcgr1: 0.41
  nFC Fcgr2b: 0.47
  nFC Fcrls: 0.39
  nFC Fen1: 0.50
  nFC Fgf13: 0.38
  nFC Fkbp10: 0.42
  nFC Fndc1: 0.46
  nFC Fscn1: 0.43
  nFC Fst: 0.48
  nFC Fstl1: 0.43
  nFC Gas2l3: 0.40
  nFC Gm13889: 0.55
  nFC Gm25380: 0.50
  nFC Gm42674: 0.44
  nFC Gm49339: 0.52
  nFC Hells: 0.41
  nFC Il18bp: 0.52
  nFC Ildr2: 0.40
  nFC Itm2a: 0.42
  nFC Kcnn4: 0.41
  nFC Kdelr3: 0.42
  nFC Kif23: 0.44
  nFC Klhdc8a: 0.49
  nFC Kntc1: 0.38
  nFC Lair1: 0.53
  nFC Lat2: 0.47
  nFC Lcn2: 0.52
  nFC Lgals1: 0.46
  nFC Lgmn: 0.47
  nFC Lilrb4a: 0.54
  nFC Lmnb1: 0.53
  nFC Loxl2: 0.53
  nFC Lrg1: 0.54
  nFC Lum: 0.40
  nFC Mad2l1: 0.51
  nFC Mafb: 0.53
  nFC Mark1: 0.42
  nFC Mcm5: 0.40
  nFC Mdk: 0.40
  nFC Mfap5: 0.46
  nFC Mfrp: 0.55
  nFC Mgp: 0.49
  nFC Mir692-1: 0.44
  nFC Mmp14: 0.40
  nFC Ms4a6c: 0.53
  nFC Ms4a6d: 0.53
  nFC Ncapd2: 0.41
  nFC Ndnf: 0.55
  nFC Nnat: 0.40
  nFC Nrcam: 0.42
  nFC Nrep: 0.42
  nFC P2ry6: 0.52
  nFC Paox: 0.53
  nFC Pcdh7: 0.49
  nFC Pdlim4: 0.42
  nFC Plk4: 0.40
  nFC Polh: 0.55
  nFC Ppic: 0.47
  nFC Prdx4: 0.52
  nFC Psat1: 0.51
  nFC Psrc1: 0.42
  nFC Pth1r: 0.38
  nFC Racgap1: 0.43
  nFC Rcc1: 0.53
  nFC Rgs4: 0.42
  nFC Rgs5: 0.50
  nFC Rhof: 0.49
  nFC S100a4: 0.42
  nFC S100a14: 0.41
  nFC Scn3b: 0.53
  nFC Serpina3g: 0.40
  nFC Serpina3n: 0.43
  nFC Serpine1: 0.51
  nFC Serpine2: 0.55
  nFC Serpinh1: 0.55
  nFC Sertad4: 0.39
  nFC Sfn: 0.44
  nFC Sh2b2: 0.43
  nFC Slamf8: 0.42
  nFC Smc2: 0.51
  nFC Snai1: 0.51
  nFC Spc24: 0.46
  nFC St8sia6: 0.49
  nFC Tacc3: 0.42
  nFC Tiam1: 0.49
  nFC Tlr2: 0.48
  nFC Tnfaip8l1: 0.47
  nFC Tnfrsf11a: 0.46
  nFC Tns4: 0.44
  nFC Traf4: 0.47
  nFC Tubb2b: 0.44
  nFC Tyms: 0.49
  nFC Ulbp1: 0.48
  nFC Vcan: 0.43
  nFC Wfdc17: 0.41
